# Source: patent publication US20220226268A1, “COMPOSITIONS AND METHODS FOR TREATING CENTRAL NERVOUS SYSTEM DISORDERS” (PaxMedica, Inc., priority 2019, published 2022)
# What was measured:
# [1] = in vivo, cited from earlier work
# [2] = Determination of suramin in plasma and brain tissue of mice after IP or IN administration; format: in vivo, male Fmr1-knockout B6.129P2-Fmr1tm1Cgr/J TG mice; conditions: male, Fmr1-knockout B6.129P2-Fmr1tm1Cgr/J, mouse, Group 1: IP injection 20 mg/kg weekly for four weeks, read-out: Average Brain Tissue to Plasma Partitioning Ratio
# Method: For the study, male Fmr1-knockout B6.129P2-Fmr1tm1Cgr/J TG mice were purchased from Jackson Laboratories, Bar Harbor, Me. These mice were of approximately 8 weeks of age.
# Mice were accommodated to the research facility for approximately a week. Body weights of all mice were recorded for health monitoring purposes.
# Blood samples were collected from all mice at the end of 12 weeks of age. Brain tissue was harvested from all mice upon sacrifice 13-14 weeks of age. Standard sample preparation and analytical techniques were used to obtain the data.
# The data is presented as the average plasma concentration (in both ng/ml and μM) for each animal group the and average brain tissue concentration (in both ng/g and mmol/g). Also presented is the average brain tissue to plasma partition ratio for each group.
smiles,measurement,setting,value
Cc1ccc(C(=O)Nc2ccc(S(=O)(=O)O)c3cc(S(=O)(=O)O)cc(S(=O)(=O)O)c23)cc1NC(=O)c1cccc(NC(=O)Nc2cccc(C(=O)Nc3cc(C(=O)Nc4ccc(S(=O)(=O)O)c5cc(S(=O)(=O)O)cc(S(=O)(=O)O)c45)ccc3C)c2)c1 [suramin],oral bioavailability,[1]; po,not orally bioavailable
same,half-life,[1],41 to 78 days
same,Kp,[2],0.03
